Reference: PubChem BioAssay (NCI)
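1) Cells in 96-well plates. 2) Compound, 48 h, 5 concentrations. 3) Linear interpolation between surrounding doses. 4) Unreached endpoint = highest concentration. GI50 = concentration required for 50% inhibition of growth. TGI denotes the concentration required for complete inhibition of growth.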

How the values were obtained:
Assay in all cases: NCI anticancer screen, dose series, 48 h
SK-MEL-5 melanoma = test system: SK-MEL-5 melanoma
SN12C renal = test system: SN12C renal
NCI/ADR-RES ovarian = test system: NCI/ADR-RES ovarian
PC-3 prostate = test system: PC-3 prostate
SW-620 colon = test system: SW-620 colon
HOP-62 NSCLC = test system: HOP-62 NSCLC
ACHN renal = test system: ACHN renal
EKVX NSCLC = test system: EKVX NSCLC
RXF 393 renal = test system: RXF 393 renal
DU-145 prostate = test system: DU-145 prostate

| Compound | TGI (SK-MEL-5 melanoma) | TGI (SN12C renal) | TGI (NCI/ADR-RES ovarian) | TGI (PC-3 prostate) | TGI (SW-620 colon) | TGI (HOP-62 NSCLC) | TGI (ACHN renal) | TGI (EKVX NSCLC) | TGI (RXF 393 renal) | GI50 (RXF 393 renal) | GI50 (SK-MEL-5 melanoma) | GI50 (DU-145 prostate) | TGI (DU-145 prostate) | GI50 (SN12C renal) | GI50 (NCI/ADR-RES ovarian) | GI50 (PC-3 prostate) | GI50 (SW-620 colon) | GI50 (HOP-62 NSCLC) | GI50 (ACHN renal) | GI50 (EKVX NSCLC) |
| --- | --- | --- | --- | --- | --- | --- | --- | --- | --- | --- | --- | --- | --- | --- | --- | --- | --- | --- | --- | --- |
| CC(=NCCN(CCN=C(C)c1c(O)cc(C)oc1=O)CCN=C(C)c1c(O)cc(C)oc1=O)c1c(O)cc(C)oc1=O | > 100 µM | > 100 µM | > 100 µM | > 100 µM | > 100 µM | > 100 µM | > 100 µM | > 100 µM | – | – | – | – | – | – | – | – | – | – | – | – |
| OCCN(CCO)c1cccc(N(CCO)CCO)c1 | > 100 µM | – | – | – | > 100 µM | > 100 µM | > 100 µM | > 100 µM | > 100 µM | – | – | – | – | – | – | – | – | – | – | – |
| Nc1c(C(=O)c2cccc(-c3ccc[n+]([O-])c3)c2)cnn1-c1ccc(F)cc1F | > 25 µM | > 25 µM | > 25 µM | > 25 µM | > 25 µM | > 25 µM | > 25 µM | – | > 25 µM | > 25 µM | > 25 µM | > 25 µM | > 25 µM | > 25 µM | > 25 µM | > 25 µM | > 25 µM | > 25 µM | > 25 µM | – |
| COc1ccccc1/C=C1\CCC(CNc2ccc(Cl)cc2)C1=O (stereo not drawn) | 18.4 µM | 26.5 µM | – | – | 20 µM | 22.9 µM | 14.6 µM | 20.2 µM | 30.3 µM | – | – | – | – | – | – | – | – | – | – | – |
| COc1ccc(-c2nsc3c2NC(=O)CC3c2ccc3c(c2)OCO3)cc1 (stereo not drawn) | 42.2 µM | > 100 µM | 6.12 µM | > 100 µM | > 100 µM | > 100 µM | > 100 µM | – | 7.88 µM | 1.38 µM | 1.46 µM | 2.78 µM | 53.1 µM | 2.55 µM | 0.524 µM | 2.01 µM | 0.514 µM | 1.92 µM | 3.14 µM | – |
| Cn1cc(NC(=O)c2cc(NC(=O)Nc3cc(C(=O)Nc4cc(C(=O)NCCC(=N)N)n(C)c4)n(C)c3)cn2C)cc1C(=O)NCCC(=N)N | 53.1 µM | > 100 µM | – | – | > 100 µM | > 100 µM | 57.9 µM | > 100 µM | 42.9 µM | – | – | – | – | – | – | – | – | – | – | – |
| COc1cc(N=Nc2ccccc2)cc(/C=N\[N-]C(N)=S)c1[O-].COc1cc(N=Nc2ccccc2)cc(/C=N\[N-]C(N)=S)c1[O-].[Fe+4] | 49 µM | – | – | – | > 100 µM | 89.9 µM | – | > 100 µM | > 100 µM | 10.9 µM | 13.5 µM | – | – | – | – | – | 50.2 µM | 23.4 µM | – | > 100 µM |
| N#CCCN(CCC#N)c1ccc(/C=C2\N=C(COc3ccc(Cl)cc3Cl)OC2=O)cc1 | > 100 µM | > 100 µM | – | – | > 100 µM | > 100 µM | – | > 100 µM | – | – | – | – | – | – | – | – | – | – | – | – |
| O=C1c2ccccc2-c2nccc3cc(Cl)nc1c23 | 2.61 µM | > 100 µM | > 72.9 µM | > 100 µM | 2.37 µM | 18.6 µM | – | > 100 µM | – | – | 1.34 µM | – | – | 2.25 µM | 5.16 µM | 2.96 µM | 1.15 µM | 2.89 µM | – | 48.9 µM |
| Cc1ccc(C(=O)O/N=C2/CCCCC2CN(C)C)cc1 (stereo not drawn) | > 100 µM | > 100 µM | – | – | – | > 100 µM | > 100 µM | > 100 µM | > 100 µM | – | – | – | – | – | – | – | – | – | – | – |
| ON(CCc1ccncc1)Cc1ccccc1 | > 100 µM | > 100 µM | > 100 µM | – | > 100 µM | > 100 µM | > 100 µM | > 100 µM | > 100 µM | – | – | – | > 100 µM | – | – | – | – | – | – | – |
| Oc1ccc2occ3c2c1CCC3 | > 100 µM | > 100 µM | – | – | > 100 µM | > 100 µM | > 100 µM | > 100 µM | > 100 µM | – | – | – | – | – | – | – | – | – | – | – |
| O=C(CC1(O)C(=O)Nc2ccc(Br)cc21)c1ccc(Cl)cc1 (stereo not drawn) | > 100 µM | > 100 µM | – | – | > 100 µM | > 100 µM | > 100 µM | > 100 µM | > 100 µM | – | – | – | – | – | – | – | – | – | – | – |
| COc1ccc(S(=O)(=O)N/N=C/CN2C(=O)c3ccccc3C2=O)cc1OC | > 100 µM | – | – | – | > 100 µM | > 100 µM | > 100 µM | > 100 µM | > 100 µM | – | – | – | – | – | – | – | – | – | – | – |
| CC1CCC2(NC1)OC1CC3[C@@H]4CC=C5C=CCC[C@]5(C)C4CC[C@]3(C)C1C2C (stereo partly drawn) | 30.8 µM | 85.8 µM | – | – | 41.2 µM | 36.6 µM | 44.6 µM | 55.5 µM | > 100 µM | – | – | – | – | – | – | – | – | – | – | – |
| CCN(CC)c1ccc(N=C2C=CC(=O)c3ncccc32)c(C)c1 | 18.4 µM | 20.1 µM | – | – | 7.12 µM | 37.2 µM | 12.7 µM | 30.4 µM | 12.6 µM | – | – | – | – | – | – | – | – | – | – | – |
| COc1ccc(Nc2ccnc(NCCNc3ccnc4cc(Cl)ccc34)n2)cc1 | 2.95 µM | 18.4 µM | 16.9 µM | 16 µM | 10.2 µM | 18.4 µM | 6.06 µM | – | 3.41 µM | 1.39 µM | 1.55 µM | 5.03 µM | 17.6 µM | 3.73 µM | 3.9 µM | 1.85 µM | 1.6 µM | 3.56 µM | 2.27 µM | – |
| Cn1c(=O)c(Oc2cccc(F)c2)cc2cnc(NC3CCOCC3)nc21 | > 25 µM | > 25 µM | > 25 µM | > 25 µM | > 25 µM | > 25 µM | > 25 µM | – | > 25 µM | > 25 µM | > 25 µM | > 25 µM | > 25 µM | > 25 µM | > 25 µM | > 25 µM | > 25 µM | > 25 µM | > 25 µM | – |
| O=S(=O)([O-])[O-].[Cl-].[NH2-].[NH2-].[NH2-].[NH2-].[Ru+3].c1ccc(-c2cccnc2)cc1 | > 100 µM | > 100 µM | – | – | > 100 µM | > 100 µM | > 100 µM | > 100 µM | – | – | > 100 µM | – | – | > 100 µM | – | – | > 100 µM | > 100 µM | > 100 µM | > 100 µM |
| Cc1cc(=O)c2cc(N=Cc3ccc([N+](=O)[O-])o3)ccc2o1 | > 100 µM | > 100 µM | > 100 µM | – | > 100 µM | > 100 µM | > 100 µM | > 100 µM | – | – | – | – | > 100 µM | – | – | – | – | – | – | – |
